Laboratory results published in patent US20230271950A1, “ANTIBACTERIAL PICOLINAMIDE COMPOUNDS” (University of Notre Dame Du Lac, priority 2020, published 2023).
≈ marks a conversion by molar mass, not a printed value. Like-named read-outs stand apart in the source and are kept apart here.

Columns and labels:
MRSA (NRS70, NRS119) = test: MIC against MRSA strains; format: cell-based, Staphylococcus aureus; settings: NRS70 strain; for MIC: Staphylococcus aureus, read-out: MIC MRSA
S. aureus ATCC29213 = test: MIC against MSSA; format: cell-based, Staphylococcus aureus; settings: MSSA ATCC 29213; for MIC: Staphylococcus aureus, Table 10, unit inferred, read-out: Activity (MIC) against S. aureus
E. faecium NCTC7171 = test: MIC against E. faecium; format: cell-based, Enterococcus faecium; settings: E. faecium NCTC 7171; for MIC: Enterococcus faecium, NCTC7171, Table 10, unit inferred, read-out: Activity (MIC) against E. faecium
C. difficile = test: MIC by broth microdilution against C. difficile strains; format: cell-based, Clostridioides difficile; settings: for MIC: Clostridioides difficile, ATCC43255, ATCC 43255, ribotype 087, read-out: MIC C. difficile; for Selectivity: MIC MRSA/MIC C. difficile, Table 3
HeLa cells = test: XTT cytotoxicity assay with HeLa cells; format: cell-based; settings: Homo sapiens, Table 6
Protocol: XTT assay. Cytotoxicity assays were performed in triplicate against HeLa cells (ATCC CCL-2). The IC50 values were calculated by nonlinear regression with GraphPad Prism 5 (San Diego, Calif.).
XTT assay. XTT assays were performed with HeLa cells (ATCC CCL-2) in triplicate, as previously described (Lancet 2008, 371, 1486). IC50 values were determined by nonlinear regression using GraphPad Prism 5 (San Diego, Calif.).

SMILES	MIC (S. aureus ATCC29213)	MIC (E. faecium NCTC7171)	MIC (MRSA (NRS70, NRS119); Table 3 (SAR^2 and SAR^3))	MIC (C. difficile; Table 3 (SAR^2 and SAR^3))	Selectivity (C. difficile)	other results
Cc1coc(NC(=O)c2ccnc(-c3ccc(Cl)c(Cl)c3)c2)n1 [Compound 14, 2-(3,4-Dichlorophenyl)-N-(4-methyloxazol-2-yl)isonicotinamide]	0.06 µg/mL (≈ 0.172 µM)	0.25 µg/mL (≈ 0.718 µM)	–	–	–	MIC (MRSA (NRS70, NRS119); Table 2 (SAR^1)): 0.06 µg/mL (≈ 0.172 µM); MIC (C. difficile; Table 2 (SAR^1)): 0.25 µg/mL (≈ 0.718 µM)
O=C(Nc1nc2ccccc2o1)c1ccnc(-c2ccc(Cl)c(Cl)c2)c1 [Compound 21, N-(benzo[d]oxazol-2-yl)-2-(3,4-dichlorophenyl)isonicotinamide]	16 µg/mL (≈ 41.6 µM)	16 µg/mL (≈ 41.6 µM)	–	–	–	MIC (MRSA (NRS70, NRS119); Table 2 (SAR^1)): 1 µg/mL (≈ 2.6 µM); MIC (C. difficile; Table 2 (SAR^1)): 1 µg/mL (≈ 2.6 µM)
CN(C)C(=O)c1cnc(NC(=O)c2ccnc(-c3ccc(Cl)c(Cl)c3)c2)o1 [Compound 28, (2-(3,4-Dichlorophenyl)isonicotinamido)-N,N-dimethyloxazole-5-carboxamide]	–	–	–	–	–	MIC MRSA (MRSA (NRS70, NRS119); Table 2 (SAR^1)): 4 µg/mL (≈ 9.87 µM); Activity (MIC) against S. aureus (S. aureus ATCC29213; Table 10, unit not given): 2; Activity (MIC) against E. faecium (E. faecium NCTC7171; Table 10, unit not given): 8; MIC C. difficile (C. difficile; ATCC 43255, ribotype 087, Table 2 (SAR^1)): 0.5 µg/mL (≈ 1.23 µM)
O=C(Nc1ncco1)c1ccnc(-c2ccc(Cl)cc2)c1 [Compound 32, 2-(4-Chlorophenyl)-N-(oxazol-2-yl)isonicotinamide]	1 µg/mL (≈ 3.34 µM)	2 µg/mL (≈ 6.67 µM)	1 µg/mL (≈ 3.34 µM)	0.5 µg/mL (≈ 1.67 µM)	2	–
O=C(Nc1ncco1)c1ccnc(-c2cccc(Cl)c2)c1 [Compound 33, 2-(3-Chlorophenyl)-N-(oxazol-2-yl)isonicotinamide]	0.5 µg/mL (≈ 1.67 µM)	1 µg/mL (≈ 3.34 µM)	0.25 µg/mL (≈ 0.834 µM)	0.5 µg/mL (≈ 1.67 µM)	0.5	–
O=C(Nc1ncco1)c1ccnc(-c2ccc(F)c(F)c2)c1 [Compound 35, 2-(3,4-Difluorophenyl)-N-(oxazol-2-yl)isonicotinamide]	4 µg/mL (≈ 13.3 µM)	1 µg/mL (≈ 3.32 µM)	2 µg/mL (≈ 6.64 µM)	1 µg/mL (≈ 3.32 µM)	2	–
O=C(Nc1ncco1)c1ccnc(-c2ccc(F)cc2)c1 [Compound 36, 2-(4-Fluorophenyl)-N-(oxazol-2-yl)isonicotinamide]	4 µg/mL (≈ 14.1 µM)	8 µg/mL (≈ 28.2 µM)	4 µg/mL (≈ 14.1 µM)	2 µg/mL (≈ 7.06 µM)	2	–
O=C(Nc1ncco1)c1ccnc(-c2cccc(F)c2)c1 [Compound 37, 2-(3-Fluorophenyl)-N-(oxazol-2-yl)isonicotinamide]	2 µg/mL (≈ 7.06 µM)	4 µg/mL (≈ 14.1 µM)	2 µg/mL (≈ 7.06 µM)	1 µg/mL (≈ 3.53 µM)	2	–
O=C(Nc1ncco1)c1ccnc(-c2ccc(Cl)c(F)c2)c1 [Compound 39, 2-(4-Chloro-3-fluorophenyl)-N-(oxazol-2-yl)isonicotinamide]	0.25 µg/mL (≈ 0.787 µM)	0.5 µg/mL (≈ 1.57 µM)	0.0625 µg/mL (≈ 0.197 µM)	0.125 µg/mL (≈ 0.393 µM)	0.5	–
O=C(Nc1ncco1)c1ccnc(-c2ccc(F)c(Cl)c2)c1 [Compound 40, 2-(3-Chloro-4-fluorophenyl)-N-(oxazol-2-yl)isonicotinamide]	0.5 µg/mL (≈ 1.57 µM)	1 µg/mL (≈ 3.15 µM)	0.25 µg/mL (≈ 0.787 µM)	0.25 µg/mL (≈ 0.787 µM)	1	–
O=C(Nc1ncco1)c1ccnc(-c2cc(Cl)cc(Cl)c2)c1 [Compound 41, 2-(3,5-Dichlorophenyl)-N-(oxazol-2-yl)isonicotinamide]	0.06 µg/mL (≈ 0.18 µM)	0.06 µg/mL (≈ 0.18 µM)	0.0625 µg/mL (≈ 0.187 µM)	0.0625 µg/mL (≈ 0.187 µM)	1	–
O=C(Nc1ncco1)c1ccnc(-c2cc(F)cc(Cl)c2)c1 [Compound 43, 2-(3-Chloro-5-fluorophenyl)-N-(oxazol-2-yl)isonicotinamide]	0.25 µg/mL (≈ 0.787 µM)	0.5 µg/mL (≈ 1.57 µM)	0.0625 µg/mL (≈ 0.197 µM)	0.12 µg/mL (≈ 0.378 µM)	0.5	–
O=C(Nc1ncco1)c1ccnc(-c2ccc(C(F)(F)F)cc2)c1 [Compound 44, N-(Oxazol-2-yl)-2-(4-(trifluoromethyl)phenyl)isonicotinamide]	0.25 µg/mL (≈ 0.75 µM)	1 µg/mL (≈ 3 µM)	1 µg/mL (≈ 3 µM)	0.25 µg/mL (≈ 0.75 µM)	4	–
O=C(Nc1ncco1)c1ccnc(-c2cccc(C(F)(F)F)c2)c1 [Compound 45, N-(Oxazol-2-yl)-2-(3-(trifluoromethyl)phenyl)isonicotinamide]	0.25 µg/mL (≈ 0.75 µM)	1 µg/mL (≈ 3 µM)	0.25 µg/mL (≈ 0.75 µM)	0.25 µg/mL (≈ 0.75 µM)	1	–
O=C(Nc1ncco1)c1ccnc(-c2ccc(OC(F)(F)F)cc2)c1 [Compound 46, N-(Oxazol-2-yl)-2-(4-(trifluoromethoxy)phenyl)isonicotinamide]	0.5 µg/mL (≈ 1.43 µM)	2 µg/mL (≈ 5.73 µM)	1 µg/mL (≈ 2.86 µM)	0.125 µg/mL (≈ 0.358 µM)	8	–
O=C(Nc1ncco1)c1ccnc(-c2cccc(OC(F)(F)F)c2)c1 [Compound 47, N-(Oxazol-2-yl)-2-(3-(trifluoromethoxy)phenyl)isonicotinamide]	0.25 µg/mL (≈ 0.716 µM)	1 µg/mL (≈ 2.86 µM)	0.0625 µg/mL (≈ 0.179 µM)	0.25 µg/mL (≈ 0.716 µM)	0.25	–

SMILES	MIC (S. aureus ATCC29213)	MIC (E. faecium NCTC7171)	MIC (MRSA (NRS70, NRS119); Table 3 (SAR^2 and SAR^3))	MIC (C. difficile; Table 3 (SAR^2 and SAR^3))	Selectivity (C. difficile)	other results
O=C(Nc1ncco1)c1ccnc(-c2ccc(Br)cc2)c1 [Compound 48, 2-(4-Bromophenyl)-N-(oxazol-2-yl)isonicotinamide]	0.5 µg/mL (≈ 1.45 µM)	1 µg/mL (≈ 2.91 µM)	0.25 µg/mL (≈ 0.726 µM)	0.5 µg/mL (≈ 1.45 µM)	0.5	–
O=C(Nc1ncco1)c1ccnc(OCC(F)(F)F)c1 [Compound 64, N-(Oxazol-2-yl)-2-(2,2,2-trifluoroethoxy)isonicotinamide]	8 µg/mL (≈ 27.9 µM)	8 µg/mL (≈ 27.9 µM)	4 µg/mL (≈ 13.9 µM)	2 µg/mL (≈ 6.96 µM)	2	–
O=C(Nc1ncco1)c1ccnc(-c2ccc(Cl)c(Cl)c2)c1F [Compound 66, 2-(3,4-Dichlorophenyl)-3-fluoro-N-(oxazol-2-yl)isonicotinamide]	0.5 µg/mL (≈ 1.42 µM)	1 µg/mL (≈ 2.84 µM)	2 µg/mL (≈ 5.68 µM)	0.25 µg/mL (≈ 0.71 µM)	8	–
O=C(Nc1ncco1)c1cc(-c2ccc(Cl)c(Cl)c2)ncc1F [Compound 70, 2-(3,4-Dichlorophenyl)-5-fluoro-N-(oxazol-2-yl)isonicotinamide]	0.25 µg/mL (≈ 0.71 µM)	0.5 µg/mL (≈ 1.42 µM)	0.0625 µg/mL (≈ 0.177 µM)	0.125 µg/mL (≈ 0.355 µM)	0.5	–
O=C(Nc1ncco1)c1cc(-c2ccc(F)c(Cl)c2)ccn1 [Compound 91, 4-(3-Chloro-4-fluorophenyl)-N-(oxazol-2-yl)picolinamide]	≥ 128 µg/mL	≥ 128 µg/mL	128 µg/mL (≈ 403 µM)	0.25 µg/mL (≈ 0.787 µM)	512	–
O=C(Nc1ncco1)c1ccnc(Oc2ccc(Cl)c(Cl)c2)c1 [Compound 99, 2-(3,4-Dichlorophenoxy)-N-(oxazol-2-yl)isonicotinamide]	0.12 µg/mL (≈ 0.343 µM)	0.5 µg/mL (≈ 1.43 µM)	–	–	–	IC50 (HeLa cells): 37 ± 1 µg/mL (≈ 106 µM)
O=C(Nc1ncco1)c1ccnc(Oc2cccc(Cl)c2)c1 [Compound 100, 2-(3-Chlorophenoxy)-N-(oxazol-2-yl)isonicotinamide]	1 µg/mL (≈ 3.17 µM)	2 µg/mL (≈ 6.33 µM)	–	–	–	–
O=C(Nc1ncco1)c1ccnc(Oc2ccc(F)c(Cl)c2)c1 [Compound 101, 2-(3-Chloro-4-fluorophenoxy)-N-(oxazol-2-yl)isonicotinamide]	1 µg/mL (≈ 3 µM)	2 µg/mL (≈ 5.99 µM)	–	–	–	–
O=C(Nc1ncco1)c1ccnc(Oc2ccc(Cl)c(F)c2)c1 [Compound 102, 2-(4-Chloro-3-fluorophenoxy)-N-(oxazol-2-yl)isonicotinamide]	1 µg/mL (≈ 3 µM)	2 µg/mL (≈ 5.99 µM)	–	–	–	–
O=C(Nc1ncco1)c1ccnc(Oc2cccc(C(F)(F)F)c2)c1 [Compound 103, N-(Oxazol-2-yl)-2-(3-(trifluoromethyl)phenoxy)isonicotinamide]	1 µg/mL (≈ 2.86 µM)	1 µg/mL (≈ 2.86 µM)	–	–	–	–
O=C(Nc1ncco1)c1ccnc(Oc2ccc(OC(F)(F)F)cc2)c1 [Compound 104, N-(Oxazol-2-yl)-2-(4-(trifluoromethoxy)phenoxy)isonicotinamide]	1 µg/mL (≈ 2.74 µM)	16 µg/mL (≈ 43.8 µM)	–	–	–	–
O=C(Nc1ncco1)c1ccnc(Oc2cccc(OC(F)(F)F)c2)c1 [Compound 105, N-(Oxazol-2-yl)-2-(3-(trifluoromethoxy)phenoxy)isonicotinamide]	1 µg/mL (≈ 2.74 µM)	16 µg/mL (≈ 43.8 µM)	–	–	–	–
O=C(Nc1ncco1)c1cc(Oc2ccc(F)c(F)c2)ccn1 [Compound 106, 4-(3,4-Difluorophenoxy)-N-(oxazol-2-yl)picolinamide]	64 µg/mL (≈ 202 µM)	128 µg/mL (≈ 403 µM)	–	–	–	IC50 (HeLa cells): 106 ± 2.1 µg/mL (≈ 334 µM)
O=C(Nc1ncco1)c1cc(Oc2ccc(OC(F)(F)F)cc2)ccn1 [Compound 109, N-(Oxazol-2-yl)-4-(4-(trifluoromethoxy)phenoxy)picolinamide]	≥ 128 µg/mL	≥ 128 µg/mL	–	–	–	IC50 (HeLa cells): 77.4 ± 2.3 µg/mL (≈ 212 µM)
C#CCCCCCOC(=O)c1ccc2oc(NC(=O)c3cc(Oc4ccc(F)c(F)c4)ccn3)nc2c1 [Compound 117, Hept-6-yn-1-yl 2-(4-(3,4-difluorophenoxy)picolinamido)benzo[d]oxazole-5-carboxylate]	32 µg/mL (≈ 63.3 µM)	128 µg/mL (≈ 253 µM)	–	–	–	–
O=C(O)c1ccc2nc(NC(=O)c3cc(-c4cccc(OC(F)(F)F)c4)ccn3)oc2c1 [Compound 119, 2-(4-(3-(Trifluoromethoxy)phenyl)picolinamido)benzo[d]oxazole-6-carboxylic acid]	–	–	–	–	–	IC50 (HeLa cells): 124 ± 3.3 µg/mL (≈ 279 µM)
